Assay results: BindingDB's records for doi:10.7270/Q2VX0F3D (Burnham Center For Chemical Genomics, 2012)

Target: T1, Corticotropin-releasing factor-binding protein (Homo sapiens, UniProt P24387)
T1 sequence (P24387 whole entry): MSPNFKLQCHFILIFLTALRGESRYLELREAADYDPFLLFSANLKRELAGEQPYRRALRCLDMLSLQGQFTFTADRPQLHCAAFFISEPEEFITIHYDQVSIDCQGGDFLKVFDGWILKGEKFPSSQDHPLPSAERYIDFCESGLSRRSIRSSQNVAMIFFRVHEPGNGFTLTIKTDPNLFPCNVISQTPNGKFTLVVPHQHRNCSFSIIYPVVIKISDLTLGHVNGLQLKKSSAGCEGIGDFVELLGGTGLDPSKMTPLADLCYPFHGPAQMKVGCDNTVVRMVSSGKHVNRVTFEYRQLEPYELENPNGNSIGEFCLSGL
Test: activators of CRF receptor 2 with binding protein – uHTS hits, confirmation (AID 602473)

CN(CCOc1ccc(Cc2sc(=O)[nH]c2O)cc1)c1ccccn1
EC50: > 53 µM

Cc1c(N=C2C(=O)N(c3ccccc3Cl)C(=O)C2Cl)c(=O)n(-c2ccccc2)n1C (configuration not stated)
EC50: > 53 µM

Cc1cc2c(cc1C)NC(c1c(C)n(C)n(-c3ccccc3)c1=O)C1C(=O)CC(C)(C)CC1=N2 (configuration not stated)
EC50: > 53 µM

N#CC1C(=N)OC2=C(C(=O)CC(c3ccccc3)C2)C1c1ccc2c(c1)OCO2 (configuration not stated)
EC50: > 53 µM

Clc1ccc(C2=Nc3ncnn3C(c3ccco3)C2)cc1 (configuration not stated)
EC50: 8.29 µM

COc1cccc(C(=O)Cc2nc3ccc(C(=O)NCCc4ccc(Cl)cc4)cc3[nH]c2=O)c1
EC50: 5.02 µM

Cc1ccc(-n2c(O)c3n(-c4ccccc4)[nH]c(C(=O)c4ccccc4)c-3c2=O)cc1
EC50: 22.2 µM

COc1ccccc1-n1c(O)c2n(-c3ccc(C)cc3)[nH]c(C(=O)c3ccccc3)c-2c1=O
EC50: 5.27 µM

N#CC(C(=O)COc1ccc(Cl)cc1)c1nc2ccccc2s1 (configuration not stated)
EC50: > 53 µM

CCOc1ccc(C2CC(c3ccc(C)cc3)=Nc3nnnn32)cc1 (configuration not stated)
EC50: > 53 µM

Cc1ccccc1COc1ccc(C(=O)C2C(=O)C(=O)N(CCCn3ccnc3)C2c2ccco2)cc1 (configuration not stated)
EC50: > 53 µM

COc1cc(C2c3c(-c4ccccn4)n[nH]c3OC(=N)C2C#N)cc(OC)c1OC (configuration not stated)
EC50: > 53 µM

O=C(Cc1sc(N=NC=CCc2ccccc2)nc1O)Nc1ccc(Cl)c(Cl)c1
EC50: > 53 µM

CN1C(=O)C(=CCC=Nc2ccccc2)C(=O)N(C)C1=O
EC50: > 53 µM

CC1(C)CC(=O)C2CNc3ccccc3N=C2C1 (configuration not stated)
EC50: > 53 µM

COC(=O)C1=C(C)NC(=O)C1=CNc1ccc(Oc2ccccc2)cc1
EC50: > 53 µM

O=C(O)c1ccc(CN=Nc2cccc(C(F)(F)F)c2)cc1
EC50: > 53 µM

CCOc1ccc(C2=Nc3ncnn3C(c3ccccc3)C2)cc1 (configuration not stated)
EC50: > 53 µM

COc1cc2c(cc1OC)C(CC(=O)c1ccc(OC)c([N+](=O)[O-])c1)=NCC2
EC50: > 53 µM

COc1ccc(-n2c(O)cc(-c3ccc([N+](=O)[O-])cc3)c2O)cc1
EC50: > 53 µM

Cc1ccc(-n2c(O)cc(=O)[nH]c2=O)c(C)c1
EC50: > 53 µM

CCCCCCC1=Cc2c/c(=C(/N)NNC(=O)c3ccncc3)c(=O)oc2=CC1=O
EC50: 1.11 µM

Cc1ccc2nc(N3C(=O)C(=O)C(C(=O)c4ccco4)C3c3cccc(O)c3)sc2c1 (configuration not stated)
EC50: > 53 µM

COc1cc(/C=C2\CCC(C)C3=C(c4cc(OC)c(OC)c(OC)c4)C(C#N)C(=N)OC32)cc(OC)c1OC (configuration not stated)
EC50: > 53 µM

CC1=CC(C)(C(Cl)(Cl)Cl)C(C)C=C1N=O (configuration not stated)
EC50: > 53 µM

CCNC(=S)N(CCc1ccc(S(N)(=O)=O)cc1)c1cc(O)n(-c2ccccc2)c1O [1-(2,5-dioxo-1-phenyl-3-pyrrolidinyl)-3-ethyl-1-[2-(4-sulfamoylphenyl)ethyl]thiourea]
EC50: 18.5 µM

Cc1ccc(C2CC(c3ccccc3)=Nc3nc(-n4c(O)ccc4O)nn32)cc1 (configuration not stated) [1-[7-(4-methylphenyl)-5-phenyl-1,7-dihydro-[1,2,4]triazolo[1,5-a]pyrimidin-2-yl]pyrrolidine-2,5-dione]
EC50: > 53 µM

CCOc1ccc(C2C(C#N)=C3Sc4ccccc4N3C(=N)C2C#N)cc1 (configuration not stated) [1-amino-3-(4-ethoxyphenyl)-3H-pyrido[2,1-b][1,3]benzothiazole-2,4-dicarbonitrile]
EC50: 8.06 µM

Oc1ccc(CN=Nc2nc(N3CCCCCC3)nc(N3CCCCCC3)n2)c(O)c1 [2,4-dihydroxybenzaldehyde (4,6-diazepan-1-yl-1,3,5-triazin-2-yl)hydrazone]
EC50: > 53 µM

COc1cc(C2C(C(=O)c3ccco3)C(=O)C(=O)N2c2cc(C)on2)cc(Br)c1O (configuration not stated) [2-(3-bromanyl-5-methoxy-4-oxidanyl-phenyl)-3-(furan-2-ylcarbonyl)-1-(5-methyl-1,2-oxazol-3-yl)-4-oxidanyl-2H-pyrrol-5-one]
EC50: > 53 µM

C=C1C(c2ccc(Cl)cc2)=[N+](O)C(c2ccccc2)=CN1[O-] [2-(4-chlorophenyl)-3-methyl-4-oxido-6-phenylpyrazin-1-ium 1-oxide]
EC50: > 53 µM

N#Cc1cc2ccccc2nc1SCc1cccnc1 [2-(Pyridin-3-ylmethylsulfanyl)-quinoline-3-carbonitrile]
EC50: > 53 µM

CCCCCCc1cc2cc(C(=O)NCc3ccccc3)c(N)oc-2cc1=O [2-amino-6-hexyl-7-oxo-N-(phenylmethyl)-1-benzopyran-3-carboxamide]
EC50: 4.2 µM

COc1ccc(C2c3ccc(O)cc3OC(=N)C2C#N)cc1C (configuration not stated) [2-amino-7-hydroxy-4-(4-methoxy-3-methylphenyl)-4H-1-benzopyran-3-carbonitrile]
EC50: > 53 µM

CCCCCCc1cc2cc(C(=O)NC)c(N)oc-2cc1=O [2-azanyl-6-hexyl-N-methyl-7-oxidanylidene-chromene-3-carboxamide]
EC50: 3.06 µM

CCCC1=Nc2nc(C)nn2C(c2cccnc2)C1C(=O)OCC (configuration not stated) [2-methyl-5-propyl-7-(3-pyridinyl)-1,7-dihydro-[1,2,4]triazolo[1,5-a]pyrimidine-6-carboxylic acid ethyl ester]
EC50: > 53 µM

Oc1nc(N=NCc2ccc(F)cc2)sc1-c1ccccc1 [2-{N'-[1-(4-Fluoro-phenyl)-meth-(E)-ylidene]-hydrazino}-5-phenyl-thiazol-4-one]
EC50: > 53 µM

CC1C2=C(CC(C)(C)CC2=O)N=C2CC(C)(C)CC(=O)C21 (configuration not stated) [3,3,6,6,9-pentamethyl-2,4,5,7,9,10-hexahydroacridine-1,8-dione]
EC50: > 53 µM

COc1ccccc1C1C(C(=O)c2sc(C)nc2C)C(=O)C(=O)N1CCN1CCOCC1 (configuration not stated) [3-(2,4-dimethyl-1,3-thiazole-5-carbonyl)-4-hydroxy-2-(2-methoxyphenyl)-1-(2-morpholin-4-ylethyl)-2H-pyrrol-5-one]
EC50: > 53 µM

C=CCOc1ccc(C2C(C(=O)c3ccco3)C(=O)C(=O)N2c2nnc(C)s2)cc1 (configuration not stated) [3-(furan-2-carbonyl)-4-hydroxy-1-(5-methyl-1,3,4-thiadiazol-2-yl)-2-(4-prop-2-enoxyphenyl)-2H-pyrrol-5-one]
EC50: > 53 µM

Cc1cccc(N2C(=O)C(=O)C(C(=O)c3cccs3)C2c2ccc(C(C)C)cc2)n1 (configuration not stated) [3-Hydroxy-5-(4-isopropyl-phenyl)-1-(6-methyl-pyridin-2-yl)-4-(thiophene-2-carbonyl)-1,5-dihydro-pyrrol-2-one]
EC50: 11.3 µM

O=C(Cc1nc2ccccc2n(-c2ccccc2)c1=O)c1ccc(F)cc1 [3-[2-(4-fluorophenyl)-2-oxoethylidene]-1-phenyl-3,4-dihydro-2(1H)-quinoxalinone]
EC50: 7.18 µM

O=c1c(CN=Nc2ccccc2)c(Sc2nnnn2-c2ccccc2)nc2ccccn12 [3-[(phenylhydrazinylidene)methyl]-2-(1-phenyltetrazol-5-yl)sulfanylpyrido[1,2-a]pyrimidin-4-one]
EC50: 10.1 µM

O=C(c1ccccc1)c1[nH]n(-c2ccccc2)c2c(O)n(-c3ccccc3)c(=O)c1-2 [3-benzoyl-1,5-diphenyl-3a,6a-dihydropyrrolo[3,4-c]pyrazole-4,6-dione]
EC50: 14.6 µM

CC(=O)C1C(=O)C(=O)N(Cc2ccccc2)C1c1ccc(F)cc1 (configuration not stated) [3-ethanoyl-2-(4-fluorophenyl)-4-oxidanyl-1-(phenylmethyl)-2H-pyrrol-5-one]
EC50: > 53 µM

Cc1cc(=O)oc2c1ccc1oc(C(N=O)c3ccccc3)c(C)c12 (configuration not stated) [4,9-dimethyl-8-(N-oxidanyl-C-phenyl-carbonimidoyl)furo[2,3-h]chromen-2-one]
EC50: > 53 µM

CSCSC1=NC(C)=C(C(C)=O)C(c2ccccc2Cl)C1C#N (configuration not stated) [4-(2-chlorophenyl)-5-ethanoyl-6-methyl-2-(methylsulfanylmethylsulfanyl)-1,4-dihydropyridine-3-carbonitrile]
EC50: > 53 µM

CCOC(=O)C1C(CCc2ccccc2)=NC(=O)NC1c1cccc([N+](=O)[O-])c1 (configuration not stated) [4-(3-nitrophenyl)-2-oxo-6-(2-phenylethyl)-3,4-dihydro-1H-pyrimidine-5-carboxylic acid ethyl ester]
EC50: > 53 µM

COC(=O)c1ccc(C(=O)C(C#N)c2nc3ccccc3s2)cc1 (configuration not stated) [4-[(2Z)-2-(3H-1,3-benzothiazol-2-ylidene)-2-cyano-1-oxoethyl]benzoic acid methyl ester]
EC50: > 53 µM

C=CCSc1nnc(C)c(CC=Nc2ccc(Cl)cc2)n1 [4-chloro-N-[(E)-2-(6-methyl-3-prop-2-enylsulfanyl-1,2,4-triazin-5-yl)ethenyl]aniline]
EC50: 4.77 µM

Cc1ccc2nc(N3C(=O)C(=O)C(C(=O)c4ccc(C)o4)C3c3cccc(O)c3)sc2c1 (configuration not stated) [4-hydroxy-2-(3-hydroxyphenyl)-1-(6-methyl-1,3-benzothiazol-2-yl)-3-(5-methylfuran-2-carbonyl)-2H-pyrrol-5-one]
EC50: > 53 µM

CC1(C)CC(=O)C(C2C3=C(CC(C)(C)CC3=O)Oc3c(Br)cc(Br)cc32)C(=O)C1 (configuration not stated) [5,7-bis(bromanyl)-9-(4,4-dimethyl-2-oxidanyl-6-oxidanylidene-cyclohexen-1-yl)-3,3-dimethyl-4,9-dihydro-2H-xanthen-1-one]
EC50: 10.3 µM

O=C1CC(c2ccccc2)C(c2ccccc2)C1=O (configuration not stated) [5-oxidanyl-3,4-diphenyl-cyclopent-2-en-1-one]
EC50: > 53 µM

O=c1cc(Nc2cc(O)n(-c3ccccc3Cl)c2O)[nH]c(=O)[nH]1 [6-[[1-(2-chlorophenyl)-2,5-dioxopyrrolidin-3-yl]amino]-1H-pyrimidine-2,4-dione]
EC50: > 53 µM

COc1ccc(-c2ccc(C3c4c(n[nH]c4C)OC(=N)C3C#N)o2)cc1 (configuration not stated) [6-amino-4-[5-(4-methoxyphenyl)-2-furanyl]-3-methyl-2,4-dihydropyrano[2,3-c]pyrazole-5-carbonitrile]
EC50: 10.1 µM

COc1ccc(C2=Nc3ncnn3C(c3ccco3)C2)cc1 (configuration not stated) [7-(2-furanyl)-5-(4-methoxyphenyl)-1,7-dihydro-[1,2,4]triazolo[1,5-a]pyrimidine]
EC50: 4.53 µM

Fc1ccc(Br)cc1C1CC(c2ccc(Br)cc2)=Nc2ncnn21 (configuration not stated) [7-(5-bromo-2-fluorophenyl)-5-(4-bromophenyl)-1,7-dihydro-[1,2,4]triazolo[1,5-a]pyrimidine]
EC50: > 53 µM
